Data from paper doi:10.1101/2023.03.24.534094v2 (biorxiv, 2023).
Where two headings read alike, the source gives them in different places. Values belong to the molecule of their own block, whether it stands above or below them.

Columns and labels:
Assay in all cases: biochemical
MELK = MELK (Homo sapiens, UniProt Q14680)
JNK2 = JNK2 (Homo sapiens, UniProt P45984)
LOK = LOK (Homo sapiens, UniProt O94804)
FES = FES (Homo sapiens, UniProt P07332)
BRD4 = BRD4 (Homo sapiens, UniProt O60885)
MARK4 = molecular target: T1, MARK4 (Homo sapiens, UniProt Q96L34)
T1 sequence (Q96L34 1-752): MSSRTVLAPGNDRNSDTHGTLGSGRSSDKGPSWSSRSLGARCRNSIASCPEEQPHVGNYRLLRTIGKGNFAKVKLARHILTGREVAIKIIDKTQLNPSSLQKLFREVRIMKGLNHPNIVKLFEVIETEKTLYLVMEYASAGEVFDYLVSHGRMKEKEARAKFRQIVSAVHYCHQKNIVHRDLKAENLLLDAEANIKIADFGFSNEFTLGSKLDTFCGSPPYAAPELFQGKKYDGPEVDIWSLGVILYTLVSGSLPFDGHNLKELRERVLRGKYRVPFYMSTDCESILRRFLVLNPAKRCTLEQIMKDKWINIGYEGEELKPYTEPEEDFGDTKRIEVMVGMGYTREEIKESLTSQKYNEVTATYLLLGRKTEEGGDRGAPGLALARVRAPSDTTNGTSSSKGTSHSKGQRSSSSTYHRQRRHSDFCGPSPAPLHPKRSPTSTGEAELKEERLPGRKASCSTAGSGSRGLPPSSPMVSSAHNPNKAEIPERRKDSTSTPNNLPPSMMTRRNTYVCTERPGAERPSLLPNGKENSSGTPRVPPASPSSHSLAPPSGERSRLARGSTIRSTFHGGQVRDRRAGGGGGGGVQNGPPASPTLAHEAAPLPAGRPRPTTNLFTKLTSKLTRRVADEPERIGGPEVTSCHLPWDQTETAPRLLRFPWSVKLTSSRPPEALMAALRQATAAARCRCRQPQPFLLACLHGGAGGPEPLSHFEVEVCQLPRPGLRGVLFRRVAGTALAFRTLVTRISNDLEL

CDK2 = CDK2 (Homo sapiens, UniProt P24941)
EphB1 = molecular target: T2, EphB1 (Homo sapiens, UniProt P54762)
T2 sequence (P54762 1-984): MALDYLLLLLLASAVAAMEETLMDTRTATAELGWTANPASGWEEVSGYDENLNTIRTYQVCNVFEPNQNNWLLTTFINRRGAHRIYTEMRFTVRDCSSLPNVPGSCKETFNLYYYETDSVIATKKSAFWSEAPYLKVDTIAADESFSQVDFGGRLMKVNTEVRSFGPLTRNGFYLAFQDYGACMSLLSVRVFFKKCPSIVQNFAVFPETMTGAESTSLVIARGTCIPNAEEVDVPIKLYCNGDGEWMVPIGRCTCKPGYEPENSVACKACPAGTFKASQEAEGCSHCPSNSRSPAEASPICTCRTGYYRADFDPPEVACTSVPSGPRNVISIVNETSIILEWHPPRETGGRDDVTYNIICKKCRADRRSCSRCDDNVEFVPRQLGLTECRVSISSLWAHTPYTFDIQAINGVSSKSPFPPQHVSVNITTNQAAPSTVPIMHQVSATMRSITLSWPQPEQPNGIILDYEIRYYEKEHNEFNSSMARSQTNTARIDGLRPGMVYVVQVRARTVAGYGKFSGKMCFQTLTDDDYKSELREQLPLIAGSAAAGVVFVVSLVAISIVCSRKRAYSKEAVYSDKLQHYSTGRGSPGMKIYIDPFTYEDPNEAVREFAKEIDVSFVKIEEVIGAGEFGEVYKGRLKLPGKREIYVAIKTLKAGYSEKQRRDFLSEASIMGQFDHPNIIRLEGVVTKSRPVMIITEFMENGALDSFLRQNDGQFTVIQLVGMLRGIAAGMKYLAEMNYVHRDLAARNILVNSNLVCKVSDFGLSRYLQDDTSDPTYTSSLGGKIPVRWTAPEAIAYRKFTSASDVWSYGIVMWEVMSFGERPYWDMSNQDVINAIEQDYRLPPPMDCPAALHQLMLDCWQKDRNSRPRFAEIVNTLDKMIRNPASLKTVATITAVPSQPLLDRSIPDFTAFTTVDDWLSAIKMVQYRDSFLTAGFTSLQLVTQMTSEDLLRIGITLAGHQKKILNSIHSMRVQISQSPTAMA

JNK1 = JNK1 (Homo sapiens, UniProt P45983)
TAF1 = TAF1 (Homo sapiens, UniProt P21675)
CK1e = CK1e (Homo sapiens, UniProt P49674)

LOK, sequence (O94804 whole entry): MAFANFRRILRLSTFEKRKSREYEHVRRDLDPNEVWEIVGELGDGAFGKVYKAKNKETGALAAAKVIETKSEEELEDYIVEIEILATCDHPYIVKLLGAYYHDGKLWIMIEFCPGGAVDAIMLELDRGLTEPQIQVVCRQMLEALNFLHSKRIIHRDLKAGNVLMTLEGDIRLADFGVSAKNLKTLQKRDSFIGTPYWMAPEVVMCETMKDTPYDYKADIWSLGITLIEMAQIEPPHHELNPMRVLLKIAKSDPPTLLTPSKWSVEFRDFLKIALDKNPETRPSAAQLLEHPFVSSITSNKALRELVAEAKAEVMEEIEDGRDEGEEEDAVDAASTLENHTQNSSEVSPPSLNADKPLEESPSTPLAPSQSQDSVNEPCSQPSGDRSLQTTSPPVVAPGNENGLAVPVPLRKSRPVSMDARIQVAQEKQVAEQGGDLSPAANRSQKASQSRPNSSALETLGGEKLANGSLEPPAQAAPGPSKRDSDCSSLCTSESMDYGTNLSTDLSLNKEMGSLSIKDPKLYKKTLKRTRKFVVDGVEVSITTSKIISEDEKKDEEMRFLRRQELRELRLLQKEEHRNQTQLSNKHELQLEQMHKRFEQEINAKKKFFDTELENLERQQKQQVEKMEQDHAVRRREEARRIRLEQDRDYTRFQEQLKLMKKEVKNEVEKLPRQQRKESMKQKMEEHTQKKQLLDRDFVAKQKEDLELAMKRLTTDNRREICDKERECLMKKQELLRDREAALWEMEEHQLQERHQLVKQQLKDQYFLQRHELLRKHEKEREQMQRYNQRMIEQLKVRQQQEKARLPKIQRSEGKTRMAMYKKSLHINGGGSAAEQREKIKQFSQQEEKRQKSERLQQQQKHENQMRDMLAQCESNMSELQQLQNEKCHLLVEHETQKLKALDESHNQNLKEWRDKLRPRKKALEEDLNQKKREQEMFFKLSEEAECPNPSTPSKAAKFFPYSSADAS
TAF1, sequence (P21675 whole entry): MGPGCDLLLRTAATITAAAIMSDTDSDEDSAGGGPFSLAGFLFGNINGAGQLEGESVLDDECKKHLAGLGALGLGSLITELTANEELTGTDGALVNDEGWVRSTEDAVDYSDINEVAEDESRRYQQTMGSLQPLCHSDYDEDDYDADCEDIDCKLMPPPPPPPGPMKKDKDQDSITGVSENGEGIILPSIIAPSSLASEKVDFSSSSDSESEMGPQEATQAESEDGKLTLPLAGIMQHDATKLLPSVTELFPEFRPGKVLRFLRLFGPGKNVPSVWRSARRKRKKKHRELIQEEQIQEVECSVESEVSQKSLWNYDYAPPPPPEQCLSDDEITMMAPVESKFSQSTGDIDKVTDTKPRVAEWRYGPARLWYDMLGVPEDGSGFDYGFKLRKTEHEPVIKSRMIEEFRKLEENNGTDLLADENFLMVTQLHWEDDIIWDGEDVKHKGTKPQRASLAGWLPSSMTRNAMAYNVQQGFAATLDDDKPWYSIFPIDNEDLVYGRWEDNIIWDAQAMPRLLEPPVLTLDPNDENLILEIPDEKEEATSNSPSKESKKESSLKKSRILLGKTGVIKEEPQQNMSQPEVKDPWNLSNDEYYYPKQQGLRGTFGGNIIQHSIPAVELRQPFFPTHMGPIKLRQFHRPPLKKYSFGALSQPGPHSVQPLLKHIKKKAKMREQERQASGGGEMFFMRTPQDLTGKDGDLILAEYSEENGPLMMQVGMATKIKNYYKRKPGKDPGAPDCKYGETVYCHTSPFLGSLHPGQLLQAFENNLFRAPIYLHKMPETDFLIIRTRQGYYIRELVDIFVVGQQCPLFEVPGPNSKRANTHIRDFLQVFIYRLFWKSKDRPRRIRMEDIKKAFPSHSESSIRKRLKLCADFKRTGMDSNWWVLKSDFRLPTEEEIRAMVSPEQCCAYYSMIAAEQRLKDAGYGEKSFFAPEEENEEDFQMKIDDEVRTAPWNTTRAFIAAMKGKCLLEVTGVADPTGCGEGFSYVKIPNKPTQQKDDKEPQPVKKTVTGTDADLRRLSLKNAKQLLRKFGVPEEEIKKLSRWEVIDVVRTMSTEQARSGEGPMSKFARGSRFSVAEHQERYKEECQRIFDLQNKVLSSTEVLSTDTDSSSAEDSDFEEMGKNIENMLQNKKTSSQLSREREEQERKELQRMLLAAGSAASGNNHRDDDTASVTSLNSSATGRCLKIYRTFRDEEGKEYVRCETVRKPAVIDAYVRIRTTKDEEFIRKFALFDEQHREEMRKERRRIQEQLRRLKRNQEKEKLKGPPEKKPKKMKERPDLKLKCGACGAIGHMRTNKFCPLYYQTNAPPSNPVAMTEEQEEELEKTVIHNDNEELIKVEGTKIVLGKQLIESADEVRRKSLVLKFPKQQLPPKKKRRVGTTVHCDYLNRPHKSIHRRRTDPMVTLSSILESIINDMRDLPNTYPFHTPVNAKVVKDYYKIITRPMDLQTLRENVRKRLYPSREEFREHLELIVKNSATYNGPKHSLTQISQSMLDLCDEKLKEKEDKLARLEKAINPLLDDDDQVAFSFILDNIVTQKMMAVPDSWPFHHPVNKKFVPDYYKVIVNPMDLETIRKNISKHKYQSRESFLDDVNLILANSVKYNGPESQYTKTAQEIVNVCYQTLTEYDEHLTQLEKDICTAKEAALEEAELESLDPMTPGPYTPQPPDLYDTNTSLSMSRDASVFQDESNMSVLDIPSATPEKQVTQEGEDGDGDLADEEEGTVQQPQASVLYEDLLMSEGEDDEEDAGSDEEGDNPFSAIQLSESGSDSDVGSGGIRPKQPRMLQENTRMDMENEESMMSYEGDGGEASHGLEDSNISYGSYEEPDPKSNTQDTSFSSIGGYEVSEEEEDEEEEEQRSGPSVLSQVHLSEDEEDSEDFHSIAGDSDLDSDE
MELK, sequence (Q14680 whole entry): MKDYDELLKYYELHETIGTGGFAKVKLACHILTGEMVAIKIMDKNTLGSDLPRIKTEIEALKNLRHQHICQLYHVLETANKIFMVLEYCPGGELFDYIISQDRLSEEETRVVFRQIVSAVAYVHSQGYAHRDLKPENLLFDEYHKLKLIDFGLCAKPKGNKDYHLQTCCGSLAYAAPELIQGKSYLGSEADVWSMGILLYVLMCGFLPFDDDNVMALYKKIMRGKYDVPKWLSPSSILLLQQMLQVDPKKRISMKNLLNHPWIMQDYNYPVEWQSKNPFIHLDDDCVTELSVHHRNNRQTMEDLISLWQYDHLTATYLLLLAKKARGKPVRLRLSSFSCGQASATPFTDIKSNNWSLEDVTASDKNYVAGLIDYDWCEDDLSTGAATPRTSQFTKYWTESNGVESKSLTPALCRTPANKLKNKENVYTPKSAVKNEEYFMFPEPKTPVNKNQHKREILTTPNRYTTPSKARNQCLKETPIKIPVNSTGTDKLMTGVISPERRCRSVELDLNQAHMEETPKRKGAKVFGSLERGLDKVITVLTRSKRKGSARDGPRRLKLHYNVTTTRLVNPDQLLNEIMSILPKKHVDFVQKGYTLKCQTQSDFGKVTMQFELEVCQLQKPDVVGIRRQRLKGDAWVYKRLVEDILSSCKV
JNK1, sequence (P45983 whole entry): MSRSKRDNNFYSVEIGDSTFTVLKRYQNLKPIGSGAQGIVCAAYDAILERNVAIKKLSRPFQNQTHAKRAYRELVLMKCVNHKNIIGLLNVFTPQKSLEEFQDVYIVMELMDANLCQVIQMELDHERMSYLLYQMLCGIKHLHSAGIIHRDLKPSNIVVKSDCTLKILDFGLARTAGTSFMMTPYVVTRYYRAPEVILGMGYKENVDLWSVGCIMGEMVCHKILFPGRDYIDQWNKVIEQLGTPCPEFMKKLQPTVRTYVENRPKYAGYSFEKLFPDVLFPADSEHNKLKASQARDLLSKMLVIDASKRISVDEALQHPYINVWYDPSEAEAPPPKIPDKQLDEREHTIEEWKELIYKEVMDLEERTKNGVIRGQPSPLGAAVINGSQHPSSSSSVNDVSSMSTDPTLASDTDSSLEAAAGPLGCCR
FES, sequence (P07332 whole entry): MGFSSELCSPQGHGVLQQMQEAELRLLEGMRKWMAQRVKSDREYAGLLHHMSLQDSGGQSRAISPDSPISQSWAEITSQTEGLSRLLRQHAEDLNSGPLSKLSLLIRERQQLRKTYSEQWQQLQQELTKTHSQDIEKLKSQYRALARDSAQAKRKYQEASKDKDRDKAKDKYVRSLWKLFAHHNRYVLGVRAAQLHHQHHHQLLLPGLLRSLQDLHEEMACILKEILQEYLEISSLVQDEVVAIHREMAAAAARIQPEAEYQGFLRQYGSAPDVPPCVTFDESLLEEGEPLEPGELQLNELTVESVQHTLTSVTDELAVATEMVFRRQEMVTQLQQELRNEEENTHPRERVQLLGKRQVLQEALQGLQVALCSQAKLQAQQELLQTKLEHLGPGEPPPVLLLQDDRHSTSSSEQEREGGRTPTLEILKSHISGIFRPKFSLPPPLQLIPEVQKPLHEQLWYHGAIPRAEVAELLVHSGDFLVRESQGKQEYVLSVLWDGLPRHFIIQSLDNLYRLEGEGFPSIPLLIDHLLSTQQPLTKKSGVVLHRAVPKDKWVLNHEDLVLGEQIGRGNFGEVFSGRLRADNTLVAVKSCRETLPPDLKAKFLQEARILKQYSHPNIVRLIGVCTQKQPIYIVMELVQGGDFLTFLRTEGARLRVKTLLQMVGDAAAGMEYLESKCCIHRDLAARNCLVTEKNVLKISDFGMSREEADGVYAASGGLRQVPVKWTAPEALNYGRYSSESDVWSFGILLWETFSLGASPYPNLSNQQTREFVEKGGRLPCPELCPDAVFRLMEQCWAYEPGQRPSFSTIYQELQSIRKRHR

SMILES: CNc1ncc2cc(-c3ccc(-c4cccc(C)n4)cc3Cl)c(=O)n(CC3OCC(N)CO3)c2n1 (stereo not drawn) [compound 2, G-5555]
dTm G-5555 (2) (MELK; 10 µM, binder): 8.4 °C
dTm G-5555 (2) (JNK2; 10 µM, binder): 0.6 °C
dTm G-5555 (2) (LOK; 10 µM, binder): 10.2 °C
dTm G-5555 (2) (FES; 10 µM, binder): 4.1 °C
dTm G-5555 (2) (BRD4; 10 µM, binder): -1.1 °C
dTm G-5555 (2) (MARK4; 10 µM, binder): 7.7 °C
dTm G-5555 (2) (CDK2; 10 µM, binder): 0.5 °C

SMILES: CNc1ncc2cc(-c3cc(Br)ccc3Cl)c(=O)n(C[C@H]3OC[C@H](N)CO3)c2n1 [compound 7, 8-(((2r,5r)-5-Amino-1,3-dioxan-2-yl)methyl)-6-(5-bromo-2-chlorophenyl)-2-(methylamino)pyrido[2,3-d]pyrimidin-7(8H)-one]
ΔTm at 10 µM (EphB1; read-out: dTm 7): 3.1 °C
ΔTm at 10 µM (MELK; read-out: dTm 7): 3.6 °C
ΔTm at 10 µM (JNK2; read-out: dTm 7): 1.1 °C
ΔTm at 10 µM (JNK1; read-out: dTm 7): 0.9 °C
ΔTm at 10 µM (LOK; read-out: dTm 7): 2.1 °C
ΔTm at 10 µM (FES; read-out: dTm 7): 1.1 °C
ΔTm at 10 µM (TAF1; read-out: dTm 7): -0.8 °C
ΔTm at 10 µM (BRD4; read-out: dTm 7): 0.9 °C
ΔTm at 10 µM (MARK4; read-out: dTm 7): 0.8 °C
ΔTm at 10 µM (CDK2; read-out: dTm 7): 0.3 °C

Continued, values first:

ΔTm at 10 µM (EphB1; read-out: dTm 6): 4.7 °C
ΔTm at 10 µM (JNK2; read-out: dTm 6): -0.4 °C
ΔTm at 10 µM (JNK1; read-out: dTm 6): 0.2 °C
ΔTm at 10 µM (LOK; read-out: dTm 6): 2.4 °C
ΔTm at 10 µM (FES; read-out: dTm 6): 2.5 °C
ΔTm at 10 µM (TAF1; read-out: dTm 6): -0.6 °C
ΔTm at 10 µM (BRD4; read-out: dTm 6): -0.1 °C
ΔTm at 10 µM (MARK4; read-out: dTm 6): 1.7 °C
ΔTm at 10 µM (CDK2; read-out: dTm 6): 0.5 °C
ΔTm at 10 µM (CK1e; read-out: dTm 6): 2.6 °C
SMILES: CNc1ncc2cc(-c3cc(Br)ccc3Cl)c(=O)n(CCCCN)c2n1 [compound 6, 8-(4-Aminobutyl)-6-(5-bromo-2-chlorophenyl)-2-(methylamino)pyrido[2,3-d]pyrimidin-7(8H)-one]

ΔTm at 10 µM (EphB1; read-out: dTm MR22 (5)): 4.5 °C
ΔTm at 10 µM (MELK; read-out: dTm MR22 (5)): 3.2 °C
ΔTm at 10 µM (JNK2; read-out: dTm MR22 (5)): 0.2 °C
ΔTm at 10 µM (JNK1; read-out: dTm MR22 (5)): 5.5 °C
ΔTm at 10 µM (LOK; read-out: dTm MR22 (5)): -0.4 °C
ΔTm at 10 µM (TAF1; read-out: dTm MR22 (5)): 0.2 °C
ΔTm at 10 µM (BRD4; read-out: dTm MR22 (5)): -2.8 °C
ΔTm at 10 µM (MARK4; read-out: dTm MR22 (5)): 0 °C
ΔTm at 10 µM (CDK2; read-out: dTm MR22 (5)): 0.7 °C
ΔTm at 10 µM (CK1e; read-out: dTm MR22 (5)): 2.8 °C
SMILES: CNc1ncc2cc(-c3cc(F)ccc3F)c(=O)n(CCCCN)c2n1 [compound 5, 8-(4-Aminobutyl)-6-(2,5-difluorophenyl)-2-(methylamino)pyrido[2,3-d]pyrimidin-7(8H)-one]

ΔTm at 10 µM (EphB1; read-out: dTm MR21 (4)): 3.6 °C
ΔTm at 10 µM (MELK; read-out: dTm MR21 (4)): 5.7 °C
ΔTm at 10 µM (JNK2; read-out: dTm MR21 (4)): -0.1 °C
ΔTm at 10 µM (JNK1; read-out: dTm MR21 (4)): 0.9 °C
ΔTm at 10 µM (LOK; read-out: dTm MR21 (4)): 5.4 °C
ΔTm at 10 µM (FES; read-out: dTm MR21 (4)): 3 °C
ΔTm at 10 µM (TAF1; read-out: dTm MR21 (4)): -0.1 °C
ΔTm at 10 µM (BRD4; read-out: dTm MR21 (4)): 0.1 °C
ΔTm at 10 µM (MARK4; read-out: dTm MR21 (4)): 3 °C
ΔTm at 10 µM (CDK2; read-out: dTm MR21 (4)): 0.4 °C
ΔTm at 10 µM (CK1e; read-out: dTm MR21 (4)): 4.9 °C
SMILES: CNc1ncc2cc(-c3ccccc3Cl)c(=O)n(CCCCN)c2n1 [compound 4, 8-(4-Aminobutyl)-6-(2-chlorophenyl)-2-(methylamino)pyrido[2,3-d]pyrimidin-7(8H)-one]
